Results taken from patent publication EP0371837A2, “Process for the synthesis of esters of dithiocarbamic acids by substitution of hydroxylated positions of mono- or polyhydroxylated molecules, products of this process and their uses” (PASTEUR MERIEUX SERUMS ET VACCINS, priority 1988, dated 1990).

Columns and labels:
[1] = Toxicity of lithium dithiocarbamates (method not described); conditions: statement in words, no test described
[2] = Activity of lithium dithiocarbamates (method not described); conditions: statement in words, no test described; same applications as the esters (immunomodulator, antiviral)

Which toxicité [1] does the source give for `CCN(CC)C(=S)S` [diéthyldithiocarbamate de lithium, N,N diéthyl dithiocarbamate de lithium] here?
The toxicité was “peu toxiques”.

And the activité [2]?
Its activité is “très actifs”.
